Experimental data reported in patent US12447159B2 (AELIS FARMA, priority 2018, dated 2025).
Entries after “also recorded” stand apart in the source; their conditions may differ.

Assays:
[1] = target: T1, hERG current (Homo sapiens, UniProt Q12809); test: hERG tail current in stably transfected HEK-293 cells (GLP); assay type: cell-based; settings: 100 nM, 1 μM and 10 μM
T1 construct: expressed in transfected cells; host or cells: HEK-293
Protocol: E-4031 was used as positive control and was tested in one separate HEK-293 cell to support the validity of the method used.
Cells were clamped to −80 mV, depolarised to 0 mV for 5 sec allowing activation of hERG current and repolarised to −50 mV for 5 sec allowing hERG tail current to deactivate. This experimental procedure was repeated at a frequency of 0.06 Hz. Currents were filtered at 1 kHz and acquired at the frequency of 2 kHz. Amplitude of hERG tail current was measured during the repolarizing pulse from 0 to −50 mV. […] Currents were measured before and after exposure to the test item.

[2] = Distribution in the brain of rats; assay type: in vivo; settings: rat, oral, 1.6 mg/kg, per os
Protocol: Distribution of 3pMBP in the brain was studied in mice and rats. In dogs, 3pMBP was also administered intravenously after solubilisation in cyclodextrine.

[3] = system: THC-induced increase in food intake; test: THC-induced increase in food intake (fasting-refeeding model); assay type: in vivo; settings: mice
Protocol: The effects of THC on food intake were studied using the fasting-refeeding model (Bellochio et al., 2010) in CB1^f/f male mice. […] Food intake was measured for one hour. Independent groups of animals (at least n=8 per group) were used for each treatment condition.

[4] = system: CYP1A2; test: CYP induction (mRNA level); assay type: in vitro ADME; settings: 10 nM, 100 nM and 1 μM
[5] = system: diet-induced obese (DIO) mouse model; test: Repeated treatment: food intake and body weight in diet-induced obese (DIO) mice; assay type: in vivo; settings: vs vehicle; Rimo 10 mg/kg ip; 3pMBP 0.005-15 mg/kg per os
[6] = target: UGT1A1 (Homo sapiens, UniProt P22309); test: UGT1A1 inhibition (recombinant, scopoletin substrate) assay; assay type: in vitro ADME; settings: 10 μM
Sequence of UGT1A1 (P22309 26-533): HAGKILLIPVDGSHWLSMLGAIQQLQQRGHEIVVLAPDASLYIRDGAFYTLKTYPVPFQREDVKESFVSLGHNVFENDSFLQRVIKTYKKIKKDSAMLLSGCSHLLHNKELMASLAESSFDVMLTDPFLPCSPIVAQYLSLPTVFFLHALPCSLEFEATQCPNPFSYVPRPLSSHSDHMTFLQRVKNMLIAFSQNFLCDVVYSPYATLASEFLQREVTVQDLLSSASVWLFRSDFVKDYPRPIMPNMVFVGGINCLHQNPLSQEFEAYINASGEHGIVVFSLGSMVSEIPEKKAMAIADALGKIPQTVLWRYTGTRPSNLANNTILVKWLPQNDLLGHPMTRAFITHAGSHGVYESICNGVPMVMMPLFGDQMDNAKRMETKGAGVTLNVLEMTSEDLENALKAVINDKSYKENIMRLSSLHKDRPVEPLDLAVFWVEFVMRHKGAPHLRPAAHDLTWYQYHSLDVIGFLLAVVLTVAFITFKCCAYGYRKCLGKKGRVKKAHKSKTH
Protocol: The reaction is initiated by adding the co-factor uridine-diphosphoglucuronic acid (UDPGA), the incubation is continued for 60 minutes and relative fluorescence intensity (RFI) is measured on a fluorescent plate reader.

[7] = system: male Wistar rats; test: Irwin test and body temperature in rats (GLP); assay type: in vivo; settings: 2, 9 and 36 mg/kg, single oral
Protocol: The study involved 4 groups of 6 male Wistar rats weighing between 154.0 and 185.9 g.
On study day, animals were firstly scored by the Irwin standardized observation battery and the body temperature was measured. […] Then the Irwin scores as well as measurement of body temperature were performed again at 1, 3, 6, 8 and 24 hours after the administration.

[8] = system: human chromosome aberration; test: Human Chromosome Aberration test +/- metabolic activation (GLP); assay type: cell-based; settings: highest concentration tested between 74 and 100 μM
Source text: […].

[9] = target: OAT1 (Homo sapiens, UniProt Q4U2R8); test: Cellular transporter inhibition, CHO cells (fluorometry); settings: 10 μM
Sequence of OAT1 (Q4U2R8 whole entry): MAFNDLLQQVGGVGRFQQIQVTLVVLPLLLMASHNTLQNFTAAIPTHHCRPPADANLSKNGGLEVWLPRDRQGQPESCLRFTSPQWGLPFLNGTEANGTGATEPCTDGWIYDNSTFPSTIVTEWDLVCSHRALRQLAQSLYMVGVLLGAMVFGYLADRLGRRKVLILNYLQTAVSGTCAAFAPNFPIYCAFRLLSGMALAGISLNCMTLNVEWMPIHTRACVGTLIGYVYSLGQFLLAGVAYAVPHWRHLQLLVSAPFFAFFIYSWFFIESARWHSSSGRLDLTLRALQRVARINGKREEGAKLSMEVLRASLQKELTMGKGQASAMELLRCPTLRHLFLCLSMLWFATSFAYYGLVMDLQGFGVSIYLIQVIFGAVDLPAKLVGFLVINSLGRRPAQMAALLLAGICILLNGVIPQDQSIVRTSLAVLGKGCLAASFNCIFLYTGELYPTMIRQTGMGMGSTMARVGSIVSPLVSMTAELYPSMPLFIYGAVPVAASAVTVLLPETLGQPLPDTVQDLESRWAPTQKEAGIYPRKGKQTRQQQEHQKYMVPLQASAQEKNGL
Protocol: Chinese Hamster Ovary (CHO) were used for all transporters except for P-gp that was studied in Madin-Darby Canine Kidney (MDR1-MDCKII) cells. The inhibition of the activity of each transporter is evaluated by measuring changes in the transport of their specific substrates by fluorometry.

[10] = system: THC-induced conditioned gaping; test: THC-induced conditioned gaping behavior; assay type: in vivo; settings: rats
Protocol: Three days after cannulation surgery, rats were adapted to the taste reactivity chamber. Rats were individually placed in a Taste Reaction (TR) chamber with their cannulas attached to an infusion pump to infuse water into their intraoral cavity over a period of 2 min at the rate of 1 ml/min and then returned to their home cage. Rats received the first of three daily conditioning trials three days after the adaptation trial. […] Rats received the pre-treatment drug 3 hours prior to conditioning via feeding tube. They were then placed in the TR chamber and infused with 0.1% saccharin solution for 2 min at a rate of 1 ml/min while orofacial reactions were recorded. Immediately following saccharin infusion, the rats were injected […] with 10 mg/kg THC or VEH and returned to their home cage. Twenty-four hour later, the rats underwent a drug free test trial where they were placed in the TR chamber and infused with 0.1% saccharin solution for 2 min at a rate of 1 ml/min and orofacial reactions were recorded.

[11] = system: 85 receptors (CEREP High-throughput profile+4 steroid receptors+Cannabinoid type 2 receptor); test: CEREP High-throughput binding profile (85 receptors)
Source text: The CEREP High-throughput profile consists of a broad collection of 80 transmembrane and soluble receptors, ion channels and G-Protein coupled receptors.

[12] = system: diet-induced obese (DIO) mouse model; test: Repeated treatment: food intake and body weight in diet-induced obese (DIO) mice; assay type: in vivo
Protocol: Male C57BL/6J mice were fed ad libitum with a high-fat diet (HFD) for 8 weeks before the start of the pharmacological treatments. During pharmacological treatments, the HFD was maintained and food intake and body weight were measured daily. The food consumed was calculated by subtracting the food left in the hoppers from the initial pre-weighted amount. […] 3pMBP and rimonabant were administered by oral gavage once a day, two hours before the start of the dark phase of the light/dark cycle.

[13] = per os 3 h before THC 1 mg/kg ip
[14] = 3 h prior to conditioning with THC 10 mg/kg

T1 sequence (Q12809 whole entry): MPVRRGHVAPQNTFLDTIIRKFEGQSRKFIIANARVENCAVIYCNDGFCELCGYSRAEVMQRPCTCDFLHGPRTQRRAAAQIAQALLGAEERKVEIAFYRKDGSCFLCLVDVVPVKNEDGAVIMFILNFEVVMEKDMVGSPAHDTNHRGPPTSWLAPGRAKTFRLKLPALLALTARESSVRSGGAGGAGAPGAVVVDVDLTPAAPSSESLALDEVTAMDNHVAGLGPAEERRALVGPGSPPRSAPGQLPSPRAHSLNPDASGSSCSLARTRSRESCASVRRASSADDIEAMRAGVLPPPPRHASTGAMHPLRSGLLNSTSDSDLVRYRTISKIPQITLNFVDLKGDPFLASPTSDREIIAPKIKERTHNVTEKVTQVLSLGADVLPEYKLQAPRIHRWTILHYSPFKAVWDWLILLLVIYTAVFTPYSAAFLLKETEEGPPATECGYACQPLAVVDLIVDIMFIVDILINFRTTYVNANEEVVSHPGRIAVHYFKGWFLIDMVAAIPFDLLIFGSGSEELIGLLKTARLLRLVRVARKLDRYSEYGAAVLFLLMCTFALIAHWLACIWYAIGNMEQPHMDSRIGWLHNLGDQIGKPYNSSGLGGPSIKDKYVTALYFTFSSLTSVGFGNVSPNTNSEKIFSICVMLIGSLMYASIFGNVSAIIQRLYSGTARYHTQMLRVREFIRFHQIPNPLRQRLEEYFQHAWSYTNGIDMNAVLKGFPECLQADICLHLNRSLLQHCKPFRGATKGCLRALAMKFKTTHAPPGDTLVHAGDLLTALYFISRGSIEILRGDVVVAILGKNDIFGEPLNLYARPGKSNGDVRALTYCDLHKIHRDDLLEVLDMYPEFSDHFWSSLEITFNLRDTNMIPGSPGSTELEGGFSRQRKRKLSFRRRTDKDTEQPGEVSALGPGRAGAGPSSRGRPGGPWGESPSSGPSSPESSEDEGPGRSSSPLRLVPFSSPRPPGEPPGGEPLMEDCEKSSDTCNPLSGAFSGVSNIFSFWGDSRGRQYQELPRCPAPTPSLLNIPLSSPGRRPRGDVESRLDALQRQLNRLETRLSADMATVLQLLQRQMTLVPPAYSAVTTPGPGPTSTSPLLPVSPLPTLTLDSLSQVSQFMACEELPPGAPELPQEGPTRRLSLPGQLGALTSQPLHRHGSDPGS

In the case of COc1ccc(CO[C@H]2CC[C@@]3(C)C(=CC[C@H]4[C@@H]5CC[C@H](C(C)=O)[C@@]5(C)CC[C@@H]43)C2)cc1 [3pMBP, 3β-(4-methoxybenzyloxy)pregn-5-en-20-one], the hERG tail currents [1] is reported as “did not modify hERG (human ether-ago-go-related gene) tail currents”, the Tmax [2] is reported as 7 h and the “% inhibition” value [3, 13] is reported as 100%. The ID50 [3, 13] was 0.015 mg/kg, the ID100 [3, 13] was 0.05 mg/kg and the ID50 ([3]; per os, THC 1 mg/kg) was “≈ 15 μg/kg”. For the same compound, the ID100 ([3]; per os, THC 1 mg/kg) was “≈ 50 μg/kg”, the “Expression of CYP1A2” value [4] was “did not increase the expression” and the “Body weight in obese mice” value [5] was “but not 3pMBP (0.005, 0.015, 0.05, 5 and 15 mg/kg; per os), decreases body weight”. The “Activity of UGT1A1” value [6] was “did not modify the activity”, the “Behavior (Irwin test) and body temperature” value [7] was “did not modify” and the Genotoxicity [8] was “did not show any cytotoxicity, genotoxicity and mutagenesis”. For the same compound, the “Activity of OAT1” value [9] was “did not modify the activity”, the “Establishment of conditioned gaping (mean number of gaping reactions)” value ([10]; 0.005 and […], THC 10 mg/kg) was “interfered the establishment of conditioned gaping by reducing the mean number of gaping reactions” and the “% inhibition” value [10, 14] was 50%. The ID50 [10, 14] was less than 0.005 mg/kg, the “Modification of ligand binding” value ([11]; 10 μM) was “did not modify the binding of any of the 85 receptors; also recorded: did not modify the binding of these receptors or of any of the other receptors” and the IC50 ([11]; receptor binding, 85 receptors, read-out: ID50 (the source's name)) was greater than 10 µM. The “Inhibition of food-intake and body weight (repeated administration): Effect (3pMBP)” value ([12]; male mice, highest dose tested 15 mg/kg) was “at none of the dose tested did modify food intake or body weight and No” and the “Food intake in obese mice” value ([12]; vs vehicle, Rimo 10 mg/kg ip, 3pMBP 0.005-15 mg/kg per os) was “but not 3pMBP (0.005, 0.015, 0.05, 5 and 15 mg/kg; per os), decreases food intake”.
